EC50 and IC50 data for 6 compounds are collected here from patent publication US7935670B2, “Hepatitis C virus inhibitors” (Bristol-Myers Squibb Company, priority 2006, dated 2011).

Test [1] has as its system HCV replicon in HUH-7 cells. In words: HCV replicon FRET assay. The note with it: Hepatitis C virus, Huh-7, read-out: Activity Range (EC50). Type of test: cell-based, HCV strain 1b. The source says:
An HCV replicon whole cell system was established as described by Lohmann V, Korner F, Koch J, Herian U, Theilmann L, Bartenschlager R., Science 285(5424): 110-3 (1999). This system enabled us to evaluate the effects of our HCV Protease compounds on HCV RNA replication. Briefly, using the HCV strain 1b sequence described in the Lohmann paper (Assession number: AJ238799), an HCV cDNA was synthesized by Operon Technologies, Inc. (Alameda, Calif.), and the full-length replicon was then assembled in plasmid pGem9zf(+) (Promega, Madison, Wis.) using standard molecular biology techniques. The replicon consists of (i) the HCV 5′ UTR fused to the first 12 amino acids of the capsid protein, (ii) the neomycin phosphotransferase gene (neo), (iii) the IRES from encephalomyocarditis virus (EMCV), and (iv) HCV NS3 to NS5B genes and the HCV 3′ UTR. Plasmid DNAs were linearized with ScaI and RNA transcripts were synthesized in vitro using the T7 MegaScript transcription kit (Ambion, Austin, Tex.) according to manufacturer's directions. In vitro transcripts of the cDNA were transfected into the human hepatoma cell line, HUH-7. […] Resulting cell lines were characterized for positive and negative strand RNA production and protein production over time.
The HCV replicon FRET assay was developed to monitor the inhibitory effects of compounds described in the disclosure on HCV viral replication. HUH-7 cells, constitutively expressing the HCV replicon, were grown in Dulbecco's Modified Eagle Media (DMEM) (Gibco-BRL) containing 10% Fetal calf serum (FCS) (Sigma) and 1 mg/ml G418 (Gibco-BRL). Cells were seeded the night before (1.5×10^4 cells/well) in 96-well tissue-culture sterile plates. Compound and no compound controls were prepared in DMEM containing 4% FCS, 1:100 Penicillin/Streptomysin (Gibco-BRL), 1:100 L-glutamine and 5% DMSO in the dilution plate (0.5% DMSO final concentration in the assay). Compound/DMSO mixes were added to the cells and incubated for 4 days at 37° C. After 4 days, cells were first assessed for cytotoxicity using alamar Blue (Trek Diagnotstic Systems) for a CC50 reading. The toxicity of compound (CC50) was determined by adding 1/10th volume of alamar Blue to the media incubating the cells. After 4 h, the fluorescence signal from each well was read, with an excitation wavelength at 530 nm and an emission wavelength of 580 nm, using the Cytofluor Series 4000 (Perspective Biosystems). Plates were then rinsed thoroughly with Phosphate-Buffered Saline (PBS) (3 times 150 μl). The cells were lysed with 25 μl of a lysis assay reagent containing an HCV protease substrate (5× cell Luciferase cell culture lysis reagent (Promega #E153A) diluted to 1× with distilled water, NaCl added to 150 mM final, the FRET peptide substrate (as described for the enzyme assay above) diluted to 10 μM final from a 2 mM stock in 100% DMSO. The plate was then placed into the Cytofluor 4000 instrument which had been set to 340 nm excitation/490 nm emission, automatic mode for 21 cycles and the plate read in a kinetic mode. EC50 determinations were carried out as described for the IC50 determinations.
For orientation: A replicon is a self-replicating genome or part of one, used to study replication in cells.

Test [2] addresses T1, HCV NS3/4A protease complex, BMS strain (UniProt P27958, species not given/STRAIN_BMS).
T1 construct: given for H77 and J4L6S, not expressly for BMS; fused on or other part: three-lysine solubilising tail at the end of NS4A (given for the H77 and J4L6S constructs)
In words: FRET peptide assay to monitor HCV NS3/4A proteolytic activity (BMS strain). Type of test: biochemical, HCV genotype 1a. The note with it: NS3/4A BMS strain; read-out: Activity Range (IC50). The source says:
HCV NS3 protease complexes, derived from the BMS strain, H77 strain or J4L6S strain, were generated, as described below. These purified recombinant proteins were generated for use in a homogeneous assay (see below) to provide an indication of how effective compounds of the present disclosure would be in inhibiting HCV NS3 proteolytic activity.
Serum from an HCV-infected patient was obtained from Dr. T. Wright, San Francisco Hospital. An engineered full-length cDNA (compliment deoxyribonucleic acid) template of the HCV genome (BMS strain) was constructed from DNA fragments obtained by reverse transcription-PCR(RT-PCR) of serum RNA (ribonucleic acid) and using primers selected on the basis of homology between other genotype 1a strains. From the determination of the entire genome sequence, a genotype 1a was assigned to the HCV isolate according to the classification of Simmonds et al. (See P Simmonds, K A Rose, S Graham, S W Chan, F McOmish, B C Dow, E A Follett, P L Yap and H Marsden, J. Clin. Microbiol., 31(6), 1493-1503 (1993)). […] The infectious clones, H77 (1a genotype) and J4L6S (1b genotype) were obtained from R. Purcell (NIH) and the sequences are published in Genbank (AAB67036, see Yanagi, M., Purcell, R. H., Emerson, S. U. and Bukh, J. Proc. Natl. Acad. Sci. U.S.A. 94(16), 8738-8743 (1997); AF054247, see Yanagi, M., St Claire, M., Shapiro, M., Emerson, S. U., Purcell, R. H. and Bukh, J, Virology 244 (1), 161-172. (1998)).
NS3/4A protease complex-containing fractions were pooled and loaded on a desalting column Superdex-S200 pre-equilibrated with buffer D (25 mM HEPES, pH 7.5, 20% glycerol, 300 mM NaCl, 0.2% Triton X-100, 10 mM βME). Sample was loaded at a flow rate of 1 mL/min. NS3/4A protease complex-containing fractions were pooled and concentrated to approximately 0.5 mg/ml. The purity of the NS3/4A protease complexes, derived from the BMS, H77 and J4L6S strains, were judged to be greater than 90% by SDS-PAGE and mass spectrometry analyses. The enzyme was stored at −80° C., thawed on ice and diluted prior to use in assay buffer.
The purpose of this in vitro assay was to measure the inhibition of HCV NS3 protease complexes, derived from the BMS strain, H77 strain or J4L6S strain, as described above, by compounds of the present disclosure. This assay provides an indication of how effective compounds of the present disclosure would be in inhibiting HCV NS3 proteolytic activity.
In order to monitor HCV NS3/4A protease activity, an NS3/4A peptide substrate was used. The substrate was RET S1 (Resonance Energy Transfer Depsipeptide Substrate; AnaSpec, Inc. cat #22991)(FRET peptide), described by Taliani et al. in Anal. Biochem. 240(2):60-67 (1996). The sequence of this peptide is loosely based on the NS4A/NS4B natural cleavage site for the HCV NS3 protease except there is an ester linkage rather than an amide bond at the cleavage site. The peptide also contains a fluorescence donor, EDANS, near one end of the peptide and an acceptor, DABCYL, near the other end. The fluorescence of the peptide is quenched by […] resonance energy transfer (RET) between the donor and the acceptor, but as the NS3 protease cleaves the peptide the products are released from RET quenching and the fluorescence of the donor becomes apparent.
The peptide substrate was incubated with one of the three recombinant NS3/4A protease complexes, in the absence or presence of a compound of the present disclosure. The inhibitory effects of a compound were determined by monitoring the formation of fluorescent reaction product in real time using a Cytofluor Series 4000.
Assay buffer: 50 mM HEPES, pH 7.5; 0.15 M NaCl; 0.1% Triton; 15% Glycerol; 10 mM βME. Substrate: 2 μM final concentration (from a 2 mM stock solution in DMSO stored at −20° C.). HCV NS3/4A protease type 1a (1b), 2-3 nM final concentration (from a 5 μM stock solution in 25 mM HEPES, pH 7.5, 20% glycerol, 300 mM NaCl, 0.2% Triton-X100, 10 mM βME). […]

T1 sequence (P27958 1027-1657, change not shown, one chain of several): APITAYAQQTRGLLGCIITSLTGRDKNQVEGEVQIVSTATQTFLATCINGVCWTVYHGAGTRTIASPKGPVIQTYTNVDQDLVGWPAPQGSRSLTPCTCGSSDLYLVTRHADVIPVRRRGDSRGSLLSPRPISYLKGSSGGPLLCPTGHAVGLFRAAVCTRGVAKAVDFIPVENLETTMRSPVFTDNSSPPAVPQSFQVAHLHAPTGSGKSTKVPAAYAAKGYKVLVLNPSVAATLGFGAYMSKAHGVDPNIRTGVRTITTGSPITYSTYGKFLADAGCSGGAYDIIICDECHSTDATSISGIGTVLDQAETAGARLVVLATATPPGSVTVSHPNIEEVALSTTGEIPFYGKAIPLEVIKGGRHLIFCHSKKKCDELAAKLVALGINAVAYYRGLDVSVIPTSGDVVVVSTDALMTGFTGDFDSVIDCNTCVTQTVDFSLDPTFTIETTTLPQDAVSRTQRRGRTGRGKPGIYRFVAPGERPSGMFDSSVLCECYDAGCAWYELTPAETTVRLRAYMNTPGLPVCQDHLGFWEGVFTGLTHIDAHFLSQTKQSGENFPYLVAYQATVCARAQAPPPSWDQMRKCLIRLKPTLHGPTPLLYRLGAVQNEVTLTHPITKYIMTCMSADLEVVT

As usually defined, the EC50 is the concentration giving half of the maximal effect. Usually IC50 stands for the concentration at which inhibition is half-maximal. Take `C=C[C@@H]1C[C@]1(NC(=O)[C@@H]1C[C@@H](OC(=O)c2ccc(F)cc2)CN1C(=O)[C@@H](NC(=O)OC(C)(C)C)C(C)(C)C)C(=O)NS(=O)(=O)C1CC1` [Compound 2]: in test [1], the half-maximal effective concentration (EC50) lay within 0.2 to 1 µM. Further, the half-inhibitory concentration (IC50) in test [2] lay in the range of 0.001 to 0.05 µM.

On to `C=C[C@@H]1C[C@]1(NC(=O)[C@@H]1C[C@@H](OC(=O)c2ccc(OC)cc2)CN1C(=O)[C@@H](NC(=O)OC(C)(C)C)C(C)(C)C)C(=O)NS(=O)(=O)C1CC1` [Compound 3], for which, in test [1], the concentration giving a half-maximal response (EC50) fell in the range of 0.025 to 0.2 µM. In test [2], the half-inhibitory concentration (IC50) fell in the range of 0.001 to 0.05 µM.

Regarding `C=C[C@@H]1C[C@]1(NC(=O)[C@@H]1C[C@@H](OC(=O)c2ccc(-c3ccccc3)cc2)CN1C(=O)[C@@H](NC(=O)OC(C)(C)C)C(C)(C)C)C(=O)NS(=O)(=O)C1CC1` [Compound 4], the EC50 in test [1] lay in the range of 0.2 to 1 µM. Further, the IC50 in test [2] lay in the range of 0.001 to 0.05 µM.

For the compound `C=C[C@@H]1C[C@]1(NC(=O)[C@@H]1C[C@@H](OC(=O)c2ccc3ncccc3c2)CN1C(=O)[C@@H](NC(=O)OC(C)(C)C)C(C)(C)C)C(=O)NS(=O)(=O)C1CC1` [Compound 5], the EC50 in test [1] was 0.025 to 0.2 µM. The IC50 in test [2] is 0.001 to 0.05 µM.

`C=C[C@@H]1C[C@]1(NC(=O)[C@@H]1C[C@@H](OC(=O)c2ccc3sccc3c2)CN1C(=O)[C@@H](NC(=O)OC(C)(C)C)C(C)(C)C)C(=O)NS(=O)(=O)C1CC1` [Compound 6]: the concentration giving a half-maximal response (EC50) in test [1] is 0.025 to 0.2 µM. Besides, the IC50 in test [2] fell in the range of 0.001 to 0.05 µM.

In the case of `C=C[C@@H]1C[C@]1(NC(=O)[C@@H]1C[C@@H](OC(=O)c2ccc3c(c2)CCO3)CN1C(=O)[C@@H](NC(=O)OC(C)(C)C)C(C)(C)C)C(=O)NS(=O)(=O)C1CC1` [Compound 7], the EC50 in test [1] fell in the range of 0.025 to 0.2 µM. In addition, in test [2], the IC50 lay within 0.001 to 0.05 µM.
